Each compound was assayed against T1, Sirt6 (Homo sapiens, UniProt Q8N6T7) (assay: Measurement of Sirt6 Activity (CycLex Sirt6 Deacetylase Fluorometric Assay Kit)). Settings: compound at 10 μM; fluorescence relative to the group without compound treatment (positive control group).
T1 construct: purchased CycLex CY-1156V2
Format: biochemical
How it was run: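 Recombinant Sirt6 with fluoro-labelled acetyl-lysine peptide, NAD and lysylendopeptidase developer, compound added from 10× stock in PBS; 1 h at room temperature. Fluorescence read at ex 490/em 530 nm; activation expressed as fluorescence ratio relative to enzyme without compound.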

T1 sequence (Q8N6T7 whole entry): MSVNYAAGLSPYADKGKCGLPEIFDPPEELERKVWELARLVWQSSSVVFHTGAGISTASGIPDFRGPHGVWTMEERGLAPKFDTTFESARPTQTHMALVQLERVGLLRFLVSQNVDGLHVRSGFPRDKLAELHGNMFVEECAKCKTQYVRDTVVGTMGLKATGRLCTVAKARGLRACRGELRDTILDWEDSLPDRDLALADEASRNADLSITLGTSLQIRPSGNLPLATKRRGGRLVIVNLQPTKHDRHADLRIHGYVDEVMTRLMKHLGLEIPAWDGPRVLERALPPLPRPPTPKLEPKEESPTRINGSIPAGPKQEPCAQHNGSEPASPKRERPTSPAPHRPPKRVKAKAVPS

Sirt6 Activity (% activity, 10 μM) | SMILES
146 % activity | CCNS(=O)(=O)c1cccc(-c2nn(-c3ccc(F)cc3F)c(=O)c3ccc(F)cc23)c1 [Example 124, 3-(3-(2,4-Difluorophenyl)-7-fluoro-4-oxo-3,4-dihydrophthalazin-1-yl)-N-ethylbenzenesulfonamide]
172 % activity | CN(C)S(=O)(=O)c1cccc(-c2nn(-c3ccc(F)cc3F)c(=O)c3ccc(F)cc23)c1 [Example 125, 3-(3-(2,4-Difluorophenyl)-7-fluoro-4-oxo-3,4-dihydrophthalazin-1-yl)-N,N-dimethylbenzenesulfonamide]
185 % activity | NS(=O)(=O)c1cccc(-c2nn(-c3ccc(F)cc3F)c(=O)c3ccccc23)c1 [Example 126, 3-(3-(2,4-Difluorophenyl)-4-oxo-3,4-dihydrophthalazin-1-yl)benzenesulfonamide]
321 % activity | O=c1c2ccccc2c(-c2cccc(S(=O)(=O)NCCO)c2)nn1-c1ccc(F)cc1F [Example 127, 3-(3-(2,4-Difluorophenyl)-4-oxo-3,4-dihydrophthalazin-1-yl)-N-(2-hydroxyethyl)benzene Sulfonamide]
177.53 % activity | CCS(=O)(=O)Nc1cccc(-c2nn(C3CCCCC3)c(=O)c3ccccc23)c1 [Example 128, N-(3-(3-Cyclohexyl-4-oxo-3,4-dihydrophthalazin-1-yl)phenyl)ethanesulfonamide]
104.16 % activity | CCS(=O)(=O)Nc1cccc(-c2nn(C3CCN(C)CC3)c(=O)c3ccccc23)c1 [Example 129, N-(3-(3-(1-Methylpiperidin-4-yl)-4-oxo-3,4-dihydrophthalazin-1-yl)phenyl)ethane Sulfonamide]
120.16 % activity | N#Cc1cccc(-c2nn(-c3ccc(F)cc3)c(=O)c3ccccc23)c1 [Example 130, 3-(3-(4-Fluorophenyl)-4-oxo-3,4-dihydrophthalazin-1-yl)benzonitrile]
102.08 % activity | N/C(=N/O)c1cccc(-c2nn(-c3ccc(F)cc3)c(=O)c3ccccc23)c1 [Example 131, (E)-3-(3-(4-Fluorophenyl)-4-oxo-3,4-dihydrophthalazin-1-yl)-N′-hydroxybenzimidamide]
107.58 % activity | CCS(=O)(=O)Nc1cccc(-c2nn(C(C)C)c(=O)c3ccccc23)c1 [Example 132, N-(3-(3-Isopropyl-4-oxo-3,4-dihydrophthalazin-1-yl)phenyl)ethanesulfonamide]
118.8 % activity | CCS(=O)(=O)Nc1cccc(-c2nn(-c3cnn(C)c3)c(=O)c3ccccc23)c1 [Example 133, N-(3-(3-(1-Methyl-1H-pyrazol-4-yl)-4-oxo-3,4-dihydrophthalazin-1-yl)phenyl)ethanesulfonamide]
167.53 % activity | Cl.NC1CCCN(c2nn(-c3ccc(F)cc3)c(=O)c3ccccc23)C1 (stereo not drawn) [Example 134, 4-(3-Aminopiperidin-1-yl)-2-(4-fluorophenyl)phthalazin-1(2H)-one-hydrochloride]
174.93 % activity | CCS(=O)(=O)NC1CCCN(c2nn(-c3ccc(F)cc3)c(=O)c3ccccc23)C1 (stereo not drawn) [Example 135, N-(1-(3-(4-Fluorophenyl)-4-oxo-3,4-dihydrophthalazin-1-yl)piperidin-3-yl)ethanesulfonamide]
101.27 % activity | CCS(=O)(=O)Nc1cccc(-c2nn(C3COC3)c(=O)c3ccccc23)c1 [Example 136, N-(3-(3-(Oxetan-3-yl)-4-oxo-3,4-dihydrophthalazin-1-yl)phenyl)ethanesulfonamide]
112.58 % activity | CCS(=O)(=O)NC1CCN(c2nn(-c3ccc(F)cc3)c(=O)c3ccccc23)C1 (stereo not drawn) [Example 137, N-(1-(3-(4-Fluorophenyl)-4-oxo-3,4-dihydrophthalazin-1-yl)pyrrolidin-3-yl)ethanesulfonamide]
175.98 % activity | CCS(=O)(=O)N[C@H]1CCCN(c2nn(-c3ccc(F)cc3)c(=O)c3ccccc23)C1 [Example 138, (S)—N-(1-(3-(4-Fluorophenyl)-4-oxo-3,4-dihydrophthalazin-1-yl)piperidin-3-yl)ethanesulfonamide]
130.07 % activity | CCS(=O)(=O)N[C@@H]1CCCN(c2nn(-c3ccc(F)cc3)c(=O)c3ccccc23)C1 [Example 139, (R)—N-(1-(3-(4-Fluorophenyl)-4-oxo-3,4-dihydrophthalazin-1-yl)piperidin-3-yl)ethanesulfonamide]
134.41 % activity | CCS(=O)(=O)Nc1cccc(-c2nn(C3CCC(F)(F)CC3)c(=O)c3ccccc23)c1 [Example 140, N-(3-(3-(4,4-Difluorocyclohexyl)-4-oxo-3,4-dihydrophthalazin-1-yl)phenyl)ethanesulfonamide]
212.55 % activity | CCS(=O)(=O)NC1CCCCN(c2nn(-c3ccc(F)cc3)c(=O)c3ccccc23)C1 (stereo not drawn) [Example 141, N-(1-(3-(4-Fluorophenyl)-4-oxo-3,4-dihydrophthalazin-1-yl)azepan-3-yl)ethanesulfonamide]

Sirt6 Activity (% activity, 10 μM) | SMILES
162.3 % activity | NS(=O)(=O)c1cccc(-c2nn(C3CCCCC3)c(=O)c3ccccc23)c1 [Example 142, 3-(3-Cyclohexyl-4-oxo-3,4-dihydrophthalazin-1-yl)benzenesulfonamide]
238.3 % activity | Cl.NC1CCCCN(c2nn(C3CCCCC3)c(=O)c3ccccc23)C1 (stereo not drawn) [Example 143, 4-(3-Aminoazepan-1-yl)-2-cyclohexyl phthalazin-1(2H)-one-hydrochloride]
164.1 % activity | CCS(=O)(=O)NC1CCCCN(c2nn(C3CCCCC3)c(=O)c3ccccc23)C1 (stereo not drawn) [Example 144, N-(1-(3-Cyclohexyl-4-oxo-3,4-dihydrophthalazin-1-yl)azepan-3-yl)ethanesulfonamide]
136.6 % activity | CCS(=O)(=O)Nc1cccc(-c2nn(C3CCC(C)CC3)c(=O)c3ccccc23)c1 (stereo not drawn) [Example 145, N-(3-(3-(4-Methylcyclohexyl)-4-oxo-3,4-dihydrophthalazin-1-yl)phenyl)ethanesulfonamide]
135.2 % activity | Cl.N[C@H]1CCCN(c2nn(C3CCCCC3)c(=O)c3ccccc23)C1 [Example 146, (S)-4-(3-Aminopiperidin-1-yl)-2-cyclohexylphthalazin-1(2H)-one-hydrochloride]
127.7 % activity | CCS(=O)(=O)N[C@H]1CCCN(c2nn(C3CCCCC3)c(=O)c3ccccc23)C1 [Example 147, (S)—N-(1-(3-Cyclohexyl-4-oxo-3,4-dihydrophthalazin-1-yl)piperidin-3-yl)ethanesulfonamide]
184.3 % activity | Cl.NC1CCCCN(c2nn(-c3ccc(F)cc3)c(=O)c3ccccc23)C1 (stereo not drawn) [Example 148, 4-(3-Aminoazepan-1-yl)-2-(4-fluorophenyl)phthalazin-1(2H)-one-hydrochloride]
114.9 % activity | CCS(=O)(=O)Nc1cccc(-c2cn(-c3ccc(F)cc3)c(=O)c3ccncc23)c1 [Example 149, N-(3-(2-(4-Fluorophenyl)-1-oxo-1,2-dihydropyrido[3,4-d]pyridin-4-yl)phenyl)ethanesulfonamide]
104.7 % activity | CCS(=O)(=O)Nc1cccc(-c2nn(-c3ccc(F)cc3)c(=O)c3cccc(C)c23)c1 [Example 150, N-(3-(3-(4-Fluorophenyl)-8-methyl-4-oxo-3,4-dihydrophthalazin-1-yl)phenyl)ethanesulfonamide]
195.5 % activity | CC(C)(C(=O)O)c1cccc(-c2nn(-c3ccc(F)cc3)c(=O)c3ccccc23)c1 [Example 152, 2-(3-(3-(4-Fluorophenyl)-4-oxo-3,4-dihydrophthalazin-1-yl)phenyl)-2-methylpropanoic Acid]
280.4 % activity | CNC(=O)C(C)(C)c1cccc(-c2nn(-c3ccc(F)cc3)c(=O)c3ccccc23)c1 [Example 153, 2-(3-(3-(4-Fluorophenyl)-4-oxo-3,4-dihydrophthalazin-1-yl)phenyl)-N,2-dimethylpropanamide]
263.7 % activity | CS(=O)(=O)c1cccc(-c2nn(C3CCCCC3)c(=O)c3ccccc23)c1 [Example 154, 2-Cyclohexyl-4-(3-(methylsulfonyl)phenyl)phthalazin-1(2H)-one]
230.9 % activity | Cl.N[C@H]1CCCCN(c2nn(C3CCCCC3)c(=O)c3ccccc23)C1 [Example 155, (S)-4-(3-Aminoazepan-1-yl)-2-cyclohexyl phthalazin-1(2H)-one-hydrochloride]
223.9 % activity | CN[C@H]1CCCCN(c2nn(C3CCCCC3)c(=O)c3ccccc23)C1.Cl [Example 156, (S)-2-Cyclohexyl-4-(3-(methylamino)azepan-1-yl)phthalazin-1(2H)-one-hydrochloride]
244.1 % activity | Cl.N[C@H]1CCCCN(c2nn(-c3ccc(F)cc3F)c(=O)c3ccccc23)C1 [Example 157, (S)-4-(3-Aminoazepan-1-yl)-2-(2,4-difluorophenyl)phthalazin-1(2H)-one-hydrochloride]
164.7 % activity | Cl.N[C@H]1CCCCN(c2nn(-c3ccc(F)cc3)c(=O)c3ccccc23)C1 [Example 158, (S)-4-(3-Aminoazepan-1-yl)-2-(4-fluorophenyl)phthalazin-1(2H)-one-hydrochloride]
398.8 % activity | Cl.N[C@@H]1CCCCN(c2nn(C3CCCCC3)c(=O)c3ccccc23)C1 [Example 159, (R)-4-(3-Aminoazepan-1-yl)-2-cyclohexyl phthalazin-1(2H)-one-hydrochloride]
289.8 % activity | CC(C)(C(=O)O)c1cccc(-c2nn(C3CCCCC3)c(=O)c3ccccc23)c1 [Example 160, 2-(3-(3-Cyclohexyl-4-oxo-3,4-dihydrophthalazin-1-yl)phenyl)-2-methylpropanoic Acid]

Reference: patent US20220235011A1, “PHTHALAZINONE COMPOUNDS AND USE THEREOF” (ST PHARM CO., LTD., priority 2019, published 2022)
